Source: patent publication US20100184809A1, “Heterocyclic FXR Binding Compounds” (PHENEX PHARMACEUTICALS AG, priority 2006, published 2010)
Converted amounts (≈) assume the structure as drawn.

Tests used:
[1] = Pharmacokinetic parameters in C57BL/6 mice (plasma concentration after peroral gavage); format: in vivo; details: mouse, oral, perorally by gavage 10 mg/kg, male C57BL/6 mice, read-out: mean plasma conc.
Method: Information on the rate and extent of absorption of the test compounds were generated using two distinct animal models, C57/BI/6J and C57/BLKS/J(mLepr^db/db) mice. Compounds were applied perorally by gavage at 10 mg/kg each to male 8 weeks old C57BL/6 mice and plasma concentrations of the test items were determined by LC-MS/MS (Table 11). Alternatively, compounds were applied perorally by gavage at 25 mg/kg each to 16 weeks old male C57/BLKS/J(mLepr^db/db) mice and plasma concentrations of the test items were determined 120 min after gavage by LC-MS/MS (Table 12).
A solution of 20 mg/ml of each test item was produced by diluting them in the vehicle, 30% HPBCD (hydroxypropyl-beta-cyclodextrin) in 20 mM phosphate buffer pH7.0 (v/w). These solutions were stirred overnight at room temperature and heated to 60° C. for 10 minutes, resulting in a full solubilization. The application was performed by administrating the solution perorally to the mice, with an application volume of 10 ml/kg. For each time point five mice were used. Blood samples were obtained by sacrificing animals for each time point followed by cardiac puncture. Blood samples were treated with Li-heparin during collection procedure and stored on ice until centrifugation at 645 g (5 min, 4° C.). Plasma was harvested and kept at −20° C. until being assayed. To 50 μl of mouse plasma sample 6 μl acetonitrile containing an internal standard was added. Samples were vigorously shaken and centrifuged for 10 minutes at 6000 g and 20° C. An aliquot of the particle-free supernatant was transferred to 200 μl sampler vials and subsequently subjected to LC MS/MS for quantification.

[2] = Mouse microsomal stability assay; format: in vitro ADME; details: pH 7.4; mouse liver microsomes, 37° C.
Method: In vitro assays were performed to evaluate the metabolic stability of test items in liver microsomes originating from mouse. Preparation of working standards of test items: Working solutions were prepared for each calibration level by appropriate dilution of the corresponding stock solution, depending on each compound's solubility in acetonitrile or acetonitrile/water. Calibration standards were prepared by spiking 196 μl standard matrix with 4 μl of the corresponding working solution. The standard matrix consists of 0.15 mg/ml of microsomal protein in phosphate buffer (100 mM pH 7.4), the final standard solutions contain 2% acetonitrile. The samples and standard solutions were extracted with ethyl acetate, isolation of the compounds was performed by addition of 600 μl ethyl acetate containing the internal standard (0.1 μM) to 200 μl sample and calibration standard. After vigorously shaking (10 minutes) and centrifugation (5000 g) the aqueous phase was separated by freezing in an acetone/dry ice bath and the organic phase is evaporated to dryness using a vacuum centrifuge. Samples were reconstituted in 200 μl acetonitrile/water mix (1:1 v/v) and subsequently subjected to LC-MS/MS. The incubation solution (180 μl) consisted of 90 μl of a microsomal suspension of 0.33 mg/ml of protein in phosphate buffer 100 mM pH 7.4 and 90 μl NADP-regenerating system. The reaction was initiated by the addition of 20 μl of test compound (in 20% acetonitrile) to the preincubated microsomes/buffer mix at 37° C. 200 μl samples were removed from the incubation after 0, 5, 10, and 30 minutes and processed for ethyl acetate extraction as described above. Negative controls using boiled microsomes (boiling water bath, 25 minutes) without regenerating system were run in parallel. The amount of compound in the samples is expressed as percentage of remaining compound compared to time point zero (=100%). These percentages were plotted against the corresponding time points. Intrinsic clearance (CLint) and half-life (t1/2) estimates were determined using the rate of parent disappearance and following formula (1) and (2). (1) CLint=(−k)×V×fu. (2) t1/2=In2/−k. Where CLint=intrinsic clearance [μl/min/mg protein], t1/2=half life [min], k=slope from the linear regression of log [test compound] versus time plot [1/min]. V=6666.7; fu=unbound fraction in the blood. Applying this protocol gave microsomal stabilities for examples and reference compounds as listed below in Table 9: […]

[3] = Aqueous solubility assay, Protocol B, shake-flask method; format: physicochemical; details: aqueous buffer, 10 mM PBS buffer pH 7.4, 1% MeOH, room temperature, read-out: Aqueous solubility pH 7.4 (μM) (±standard deviation), shake-flask method
Method: Protocol B, shake-flask method:
Sample preparation: Sample and standard solution preparation is performed by mixing equal volumes of acetonitrile containing the internal standard (1 μM final concentration) with sample and calibration standard solutions (100 μl). After vigorously shaking (10 seconds) the samples are centrifuged (6000 g) for 5 minutes at 20° C. Aliquots of the particle-free supernatants are transferred to 200 μl sample vials and subsequently subjected to LC-MS/MS. Assay procedure: Test concentration was 100 μM in 10 mM PBS buffer pH 7.4 with a final MeOH concentration of 1%. The volume of the incubation solution was 500 μl. Depending on each compound's solubility in MeOH, the stock concentration and the incubation concentration was adapted. The test solutions in quadruplicates were shaken at 300 rpm over a 20 hours period at room temperature, followed by centrifugation at 20000 g for 30 minutes to separate the solid phase. 100 μl of particle free sample are added to 100 μl acetonitrile containing the internal standard. The aqueous solubility of the compounds was determined by measuring the concentration of the PBS buffer supernatant by HPLC-MS/MS.

PAMPA permeability assay = format: in vitro ADME; details: % of compound found in the receiver compartment after 16 hours; PBS pH 7.4, 5% DMSO, 23° C.
Method: Artificial membrane permeability was determined as follows: Tested compounds were dissolved to 10 mM in 100% DMSO. Permeability of compounds was measured in PBS (pH 7.4), 5% DMSO at 23° C. Safire (Tecan) plate reader was used for measurement the UV/Vis absorption. Protocol: Dilute stocks of tested compounds and controls with PBS to 1.67 mM and mix well by pipeitting, add 280 μl of PBS, 5% DMSO to acceptor plate, add 5 μl of 2% L-α-Phosphatidylcholine suspension in dodecane to the membrane of donor plate, Immediately add 98 μl of PBS to donor plate and make the sandwich with acceptor plate. Add 42 μl of tested compounds and controls dilutions to […], cover the plate, place into camera and incubate for 16 hours. Make the equilibrium plate, add 225 μl of PBS, 3,7% DMSO and 25 μl of tested compounds and controls dilutions to UV plate. After 16 hours pull the donor plate out and transfer 250 μl from acceptor plate to UV plate. Scan UV plate on Safire (Tecan) plate reader from […]. Permeability is reported in % of compound found in the receiver compartment after the incubation period.

SMILES	concentration at 15 min [1]	concentration at 45 min [1]	half-life [2]	microsomal CLint [2]	melting point	solubility at 20 h [3]	PAMPA Permeability (PAMPA permeability assay)
CC(C)c1onc(-c2c(Cl)cccc2Cl)c1COc1ccc(N(C)Cc2ccc(C(=O)O)cc2)c(C(F)(F)F)n1 [Example 28, 4(((6-((3-(2,6-Dichlorophenyl)-5-isopropylisoxazol-4-yl)methoxy)-2-(trifluoromethyl)pyridin-3-yl)(methyl)amino)methyl)benzoic acid]	1780 ng/mL	2230 ng/mL	38 min	120 µL/min/mg	96.1 to 97.1 °C		
CC(C)c1onc(-c2c(Cl)cccc2Cl)c1COc1ccc(/C=C/c2cccc(C(=O)O)c2)c(Cl)c1 [Compound B, reference compound]	1600 ng/mL	1650 ng/mL				17.7 µM (≈ 9.61 µg/mL)	7%
Cc1nc(OCc2c(-c3c(Cl)cccc3Cl)noc2C(C)C)ccc1N(C)S(=O)(=O)c1ccc(C(=O)O)cc1 [Example 4, 4-(N-(6-((3-(2,6-dichlorophenyl)-5-isopropylisoxazol-4-yl)methoxy)-2-methylpyridin-3-yl)—N-methylsulfamoyl)benzoic acid]							50%
